# Source: patent publication US11964052B2, “Lipid compounds and lipid nanoparticle compositions” (SUZHOU ABOGEN BIOSCIENCES CO., LTD., priority 2021, dated 2024)
# What was measured:
# Format in all cases: physicochemical
# [1] = Encapsulation efficiency of lipid nanoparticles, Quant-it Ribogreen RNA quantification assay; settings: LNP with mRNA
# Description: (§1) Briefly, a cationic lipid provided herein, DSPC, cholesterol, and PEG-lipid were solubilized in ethanol at a molar ratio of 50:10:38.5:1.5, and mRNA were diluted in 10 to 50 mM citrate buffer, pH=4. The LNPs were prepared at a total lipid to mRNA weight ratio of approximately 10:1 to 30:1 by mixing the ethanolic lipid solution with the aqueous mRNA solution at a volume ratio of 1:3 using a microfluidic apparatus, total flow rate ranging from 9-30 mL/min. Ethanol were thereby removed and replaced by DPBS using dialysis. Finally, the lipid nanoparticles were filtered through a 0.2 μm sterile filter.
# (§2) Lipid nanoparticle size were determined by dynamic light scattering using a Malvern Zetasizer Nano ZS (Malvern UK) using a 173° backscatter detection mode. The encapsulation efficiency of lipid nanoparticles were determined using a Quant-it Ribogreen RNA quantification assay kit (Thermo Fisher Scientific, UK) according to the manufacturer's instructions.
# [2] = Lipid nanoparticle size and polydispersity by dynamic light scattering (Malvern Zetasizer Nano ZS); settings: LNP of cationic lipid/DSPC/cholesterol/PEG-lipid 50:10:38.5:1.5 with mRNA
# Description: as §1, §2
# [3] = Apparent pKa of LNP formulations, TNS fluorescence assay; settings: LNP cationic lipid/DSPC/cholesterol/DMG-PEG 50/10/38.5/1.5 mol %, pH 3 to 9
# Description: As reported in literature, the apparent pKa of LNP formulations correlates with the delivery efficiency of LNPs for nucleic acids in vivo. The apparent pKa of each formulation was determined using an assay based on fluorescence of 2-(p-toluidino)-6-napthalene sulfonic acid (TNS). LNP formulations comprising of cationic lipid/DSPC/cholesterol/DMG-PEG (50/10/38.5/1.5 mol %) in PBS were prepared as described above. TNS was prepared as a 300 uM stock solution in distilled water. LNP formulations were diluted to 0.1 mg/ml total lipid in 3 mL of buffered solutions containing 50 mM sodium citrate, 50 mM sodium phosphate, 50 mM sodium borate, and 30 mM sodium chloride where the pH ranged from 3 to 9. An aliquot of the TNS solution was added to give a final concentration of 0.1 mg/ml and following vortex mixing fluorescence intensity was measured at room temperature in a Molecular Devices Spectramax iD3 spectrometer using excitation and mission wavelengths of 325 nm and 435 nm. A sigmoidal best fit analysis was applied to the fluorescence data and the pKa value was measured as the pH giving rise to half-maximal fluorescent intensity.
SMILES,Encapsulation Efficiency [1],polydispersity [2],size (nm) [2],Apparant Pka [3]
CCCCCCCCCCCCOCC(CN(CCO)C1CCC1)OCCCCCCCCCCCC (stereo not drawn) [Compound 1],96.3%,0.12,72.4 nm,5.902
CCCCCCCCCCCCOCC(CN(CCO)C1CCC1)OC(=O)CCCCCCCCCCC (stereo not drawn) [Compound 2],94.5%,0.094,69.05 nm,5.177
CCCCCCCCCCCCOCC(CN(CCO)C1CCC1)OC(=O)CCCCC (stereo not drawn) [Compound 3],92.8%,0.124,105.6 nm,
CCCCCCCCCCCCOCC(CN(C)CCN(CCO)C1CCCC1)OCCCCCC (stereo not drawn) [Compound 5],92.4%,0.384,78.36 nm,7.315
CCCCCCCCCCCCOCC(CN(C)CCN(CCO)C1CCCCC1)OCCCCCCCCCCCC (stereo not drawn) [Compound 6],93.4%,0.241,126.4 nm,7.035
CCCCCCCCCCCCOCC(CN(CCCCCC)CCN(CCO)C1CCC1)OCCCCCCCCCCCC (stereo not drawn) [Compound 16],89.8%,0.060,74.31 nm,
CCCCCCCCCCCCOCC(CN(CCCCCCCCCCCC)CCN(CCO)C1CCC1)OCCCCCCCCCCCC (stereo not drawn) [Compound 17],92.8%,0.186,79.43 nm,5.835
CCCCCCCCCCCCOCC(CN(CCCCCC(=O)OCC(CCCCCC)CCCCCCCC)CCN(CCO)C1CCCCC1)OC(C)=O (stereo not drawn) [Compound 21],85.5%,0.221,74.88 nm,5.49
CCCCCCCCCCCCOCC(CN(CCCCCC(=O)OCC(CCCCCC)CCCCCCCC)CCN(CCO)C1CCC1)OCCCCCC (stereo not drawn) [Compound 23],88.5%,0.076,74.73 nm,5.993
CCCCCCCCCCCCOCC(CN(CCCCCC(=O)OCC(CCCCCC)CCCCCCCC)CCN(CCO)C1CCCC1)OCCCCCC (stereo not drawn) [Compound 24],93.0%,0.094,56.39 nm,6.005
CCCCCCCCCCCCOCC(CN(CCCCCC(=O)OCC(CCCCCC)CCCCCCCC)CCN(CCO)C1CCCCC1)OCCCCCC (stereo not drawn) [Compound 25],94.70%,0.112,58.01 nm,
CCCCCCCCCCCCOCC(CN(CCCCCC(=O)OCC(CCCCCC)CCCCCCCC)CCN(CCO)C1CCCCCC1)OCCCCCC (stereo not drawn) [Compound 26],93.30%,0.153,55.8 nm,5.696
CCCCCCCCCCCCOCC(CN(CCCCCC(=O)OCC(CCCCCC)CCCCCCCC)CCN(CCO)C1CC1)OCCCCCCCCCCCC (stereo not drawn) [Compound 27],73.3%,0.139,65.62 nm,5.351
CCCCCCCCCCCCOCC(CN(C)CCN(CCO)C1CCC1)OC(=O)CCCC (stereo not drawn) [Compound 40],36.4%,0.326,230 nm,
CCCCCCCCC(CCCCCCCC)CNC(=O)CCOCC(CN(C)CCN(CCO)C1CCCCC1)OCCC(=O)NCC(CCCCCCCC)CCCCCCCC (stereo not drawn) [Compound 52],96.5%,0.14,66.03 nm,
CCCCCCCCC(CCCCCCCC)CNC(=O)CCOCC(CN(C)CCN(CCO)C1CCCCCC1)OCCC(=O)NCC(CCCCCCCC)CCCCCCCC (stereo not drawn) [Compound 58],97.3%,0.032,56.37 nm,
CCCCCCC(CCCCCC)COC(=O)CCCCCN(CCN1CCC(O)C1)CC(COC(=O)CCCCC)OC(=O)CCCCC (stereo not drawn) [Compound 59],96.1%,0.049,94.89 nm,
CCCCC/C=C\C/C=C\CCCCCCCC(=O)OCC(CN(C)CCN(CCO)C1CCC1)OC(=O)CCCCCCC/C=C\C/C=C\CCCCC (stereo not drawn) [Compound 64],91.6%,0.075,73.8 nm,
CCCCCCCCC(CCCCCCCC)COC(=O)CCOCC(CN(C)CCN(CCO)C1CCCCC1)OCCC(=O)OCC(CCCCCCCC)CCCCCCCC (stereo not drawn) [Compound 72],95.22%,0.055,81.89 nm,
CCCCCCCCCCCCCCCC(=O)OCC(CCCCN(CCO)C1CCCCC1)COC(=O)CC(CCCCCC)CCCCCCCC (stereo not drawn) [Compound 86],92.81%,0.03,73.58 nm,
CCCCCCCCCCC(=O)OCC(CCCCN(CCO)C1CCCCCC1)COC(=O)CC(CCCCCC)CCCCCCCC (stereo not drawn) [Compound 92],90.25%,0.051,70.85 nm,
CCCCCCCCC(CCCCCC)COC(=O)CCOCC(CN(CCCCCC)CCN(CCO)C1CCCCCC1)OCCC(=O)OCC(CCCCCC)CCCCCCCC (stereo not drawn) [Compound 107],93.66%,0.067,61.18 nm,
CCCCCCCCCC(CCCCC)COC(=O)CCOCC(CN(CCO)C1CCC1)OCCC(=O)OCC(CCCCCC)CCCCCCCC (stereo not drawn) [Compound 108],92.04%,0.097,47.87 nm,

# Next, values leading:
Encapsulation Efficiency [1],polydispersity [2],size (nm) [2],Apparant Pka [3],SMILES
94.6%,0.2,54.52 nm,5.083,CCCCCCCCCCCCOCC(CN(CCO)C1CCC1)OCCCCCC(=O)OCC(CCCCCC)CCCCCCCC (stereo not drawn) [Compound 4]
96.7%,0.063,85.46 nm,8.7,CCCCCCCCCCCCOCC(O)CN(CCCCCC(=O)OCC(CCCCCC)CCCCCCCC)CCN(C)C (stereo not drawn) [Compound 7]
88.2%,0.156,102.9 nm,7.327,CCCCCCCCCCCCOCC(O)CN(CCCCCC(=O)OCC(CCCCCC)CCCCCCCC)CCN1CCCCC1 (stereo not drawn) [Compound 8]
90.8%,0.144,70.97 nm,,CCCCCCCCCCCCOCC(CN(CCCCCC(=O)OCC(CCCCCC)CCCCCCCC)CCN1CCCCC1)OC(C)=O (stereo not drawn) [Compound 9]
94.8%,0.356,84.22 nm,,CCCCCCCCCCCCOCC(O)CN(CCCCCC(=O)OCC(CCCCCC)CCCCCCCC)CCN1CCCC1 (stereo not drawn) [Compound 10]
82.2%,0.196,77.98 nm,7.701,CCCCCCCCCCCCOCC(O)CN(CCCCCC(=O)OCC(CCCCCC)CCCCCCCC)CCN(CC)CC (stereo not drawn) [Compound 11]
94.2%,0.128,61.3 nm,7.089,CCCCCCCCCCCCOCC(O)CN(CCO)CCCCCC(=O)OCC(CCCCCC)CCCCCCCC (stereo not drawn) [Compound 13]
86.1%,0.4,56.31 nm,4.536,CCCCCCCCCCCCOCC(CN(CCO)CCCCCC(=O)OCC(CCCCCC)CCCCCCCC)OC(=O)CCCCC (stereo not drawn) [Compound 14]
93.5%,0.139,62.11 nm,5.875,CCCCCCCCCCCCOCC(CN(CCCCCC(=O)OCC(CCCCCC)CCCCCCCC)CCN1CCCCC1)OC(=O)CCCCC (stereo not drawn) [Compound 15]
90.6%,0.17,65.06 nm,4.916,CCCCCCCCCCCCOCC(CN(CCO)CCCCCC(=O)OCC(CCCCCC)CCCCCCCC)OC(C)=O (stereo not drawn) [Compound 18]
88.5%,0.156,117.5 nm,4.957,CCCCCCCCCCCCOCC(CN(CCO)CCCCCC(=O)OCC(CCCCCC)CCCCCCCC)OC(=O)CC (stereo not drawn) [Compound 19]
90.7%,0.145,67.7 nm,5.96,CCCCCCCCCCCCOCC(CN(CCCCCC(=O)OCC(CCCCCC)CCCCCCCC)CCN(CCO)C1CCC1)OC(C)=O (stereo not drawn) [Compound 20]
83.5%,0.206,68.67 nm,5.457,CCCCCCCCCCCCOCC(CN(CCCCCC(=O)OCC(CCCCCC)CCCCCCCC)CCN(CCO)C1CC1)OCCCCCC (stereo not drawn) [Compound 22]
